Measured values as given in US20090047306A1, “ADJUVANT COMPOSITIONS” (priority 2004, published 2009).

What was measured:
glycosidase = details: cited from earlier work
[1] = system: OVA-specific IgG1 and IgG2a; assay: OVA-specific IgG1 and IgG2a plasma antibody titres (ELISA) after immunization with OVA/alum with or without alkaloid; assay type: in vivo, mice (BALB/c)
Experimental: Alhydrogel (alum; purchased from Superfos BioSector a/s, Vedbaek, Denmark) was mixed with a predetermined quantity of highly purified ovalbumin (OVA; Worthington Biochemical Corporation, Lakewood, N.J.) with or without 3,7-diepi-casuarine.
(§1) All mice (BALB/c) were immunized subcutaneously into the foodpad with 100 μg OVA in 50 μl phosphate-buffered saline (PBS) mixed with alum and either PBS (control) or 3,7-diepi-casuarine (50 μg in PBS). Boosting inoculations were performed in the same fashion 2 weeks later, into the contralateral footpad.
Blood samples (tail bleeds) were taken 3 weeks after the primary inoculation. Enzyme-linked immunosorbent assays (ELISA) were performed as described in Brewer et al. (1999) J Immunol 163:6448-54 to detect OVA-specific IgG1 and IgG2a in plasma. Results were expressed as end-point dilutions where the end-point is determined as the final plasma dilution, which yields a higher absorbance than a negative control plasma sample, included in the assay.

[2] = system: Murine interferon-γ (IFN-γ); assay: IFN-γ production by spleen cells of inoculated mice re-stimulated with OVA in vitro (ELISA); assay type: cell-based, mice (BALB/c); details: cells from mice inoculated with alum/OVA plus 50 μg compound vs alum/OVA alone (control); FIG. 2
Experimental: as §1
The mouse spleen was removed aseptically and placed in a sterile petri dish containing 5 mls of complete medium (RPMI, 1% L-Glutamine, 1% Penicillin/Streptomycin and 10% foetal calf serum). Cells suspensions were prepared by using the end of a syringe and grinding the spleen through a wire mesh. The cell suspension was then centrifuged at 1000 rpm for 5 minutes. To remove the erythrocytes, the cell pellet was resuspended in Boyle's solution (Tris 0.17M & Ammonium Chloride 0.16M) and centrifuged again for 5 minutes. The pellet was then washed in medium a further two times, then resuspended in 3 ml medium. A cell count was then carried out. Stimulation assays were performed in triplicate in U-bottomed 96-well plates (Corning Costar, N.Y.) with OVA (at 5 μg/ml, 100 μg/ml and 500 μg/ml).
Murine interferon-γ (IFN-γ) was assayed by ELISA using paired antibodies according to the manufacturer's instructions.

[3] = system: influenza vaccine-specific IgG, IgG1 and IgG2a; parameters: species or system Balb/c mice; details: mouse, in vivo
α-glucosidase = details: cited from earlier work
α-mannosidase = details: cited from earlier work
[4] = system: alum-induced Th1/Th2 response; assay: Effect of exogenous rIL-12 on alum-induced Th1/Th2 responses (Example 1 repeated, lymph node cultures); assay type: in vivo, mice (BALB/c); details: 1 μg rIL-12 in place of 3,7-diepi-casuarine; IFN-γ on lymph node cultures
Experimental: The experiment described in Example 1 (above) was repeated, but with the 3,7-diepi-casuarine replaced with 1 μg of rIL-12 (R&D Systems, Oxford, UK). Proliferative response assays of IFN-γ were performed on lymph node cultures rather than spleen cells (as described in Pollock et al. (2003) Immunology 108:137-143).

## O[C@H]1[C@H]2[C@@H](O)CCN2C[C@H]1O [compound 8]
glycosidase
  glycosidase inhibitory activity relative to swainsonine: much weaker inhibitory activity

## OC[C@H]1[C@@H](O)[C@H](O)[C@H]2[C@@H](O)[C@@H](O)CN21 [3,7-diepi-casuarine, (1R,2R,3S,6S,7R,7aR)-3-(hydroxymethyl)-1,2,6,7-tetrahydroxypyrrolizidine]
[1]; 50 μg in admixture with alum/OVA, vs alum/OVA alone
  shift of the alum-induced Th2 response towards Th1: pronounced shift towards a Th1 response
[1]; BALB/c mice, s.c. footpad, 100 μg OVA with alum, with or without 50 μg 3,7-diepi-casuarine, bleed at 3 weeks, FIG. 1b
  antigen-specific (OVA) IgG2a in plasma: significant increase
[2]
  IFN-γ produced by spleen cells re-stimulated with antigen in vitro: significantly greater amount
[3]
  adjuvant activity: exhibits adjuvant activity
  dose response of the antibody responses: No dose response
  influenza vaccine-specific IgG1 response vs control group vaccinated with influenza vaccine alone: statistically significant increased
  influenza vaccine-specific IgG2a response vs control group A: No differences
  influenza vaccine-specific IgGtotal response vs control group A: statistically significant increased
  skewing of the Th1/Th2 response from Th2 towards Th1: No skewing

## O[C@H]1[C@H](O)[C@@H](O)CN2CC[C@H](O)[C@H]12 [castanospermine]
α-glucosidase
  inhibition of α-glucosidase: potent

## O[C@H]1[C@H]2[C@H](O)CCCN2C[C@H]1O [swainsonine]
α-mannosidase
  inhibition of α-mannosidase: potent and specific inhibitor

## O[C@H]1[C@H]2[C@H](O)CCN2C[C@H]1O [compound 7, (1S, 2R, 7R, 7aR)-1,2,7-trihydroxy]
glycosidase
  glycosidase inhibitory activity relative to swainsonine: much weaker inhibitory activity

B1: rIL-12: rIL-12 (R&D Systems, Oxford, UK), recombinant interleukin-12 (protein, UniProt P29459 23-219; P29460 23-328, looked up)
Interleukin-12 subunit alpha: RNLPVATPDPGMFPCLHHSQNLLRAVSNMLQKARQTLEFYPCTSEEIDHEDITKDKTSTVEACLPLELTKNESCLNSRETSFITNGSCLASRKTSFMMALCLSSIYEDLKMYQVEFKTMNAKLLMDPKRQIFLDQNMLAVIDELMQALNFNSETVPQKSSLEEPDFYKTKIKLCILLHAFRIRAVTIDRVMSYLNAS
Interleukin-12 subunit beta: IWELKKDVYVVELDWYPDAPGEMVVLTCDTPEEDGITWTLDQSSEVLGSGKTLTIQVKEFGDAGQYTCHKGGEVLSHSLLLLHKKEDGIWSTDILKDQKEPKNKTFLRCEAKNYSGRFTCWWLTTISTDLTFSVKSSRGSSDPQGVTCGAATLSAERVRGDNKEYEYSVECQEDSACPAAEESLPIEVMVDAVHKLKYENYTSSFFIRDIIKPDPPKNLQLKPLKNSRQVEVSWEYPDTWSTPHSYFSLTFCVQVQGKSKREKKDRVFTDKTSATVICRKNASISVRAQDRYYSSSWSEWASVPCS
[4]
  effect on the alum-induced Th1/Th2 response: comparable effect to 3,7-diepi-casuarine
